Laboratory results: ChEMBL document CHEMBL5131385, “Novel piperazine based benzamide derivatives as potential anti-glioblastoma agents inhibiting cell proliferation and cell cycle progression” (Eur J Med Chem, 2022)
The source made the active and inactive calls. The calls are words filed in the database; no cut-off is given here.

Experiments:
[1] = Induction of apoptosis in human U-87 MG cells assessed as viable cells at 0.075 uM incubated for 72 hrs by Annexin V-FITC/PI staining based flow cytometry method (reference value: 96.84 %); format: functional, U-87MG ATCC; conditions: read-out: Activity
[2] = Induction of apoptosis in human U-87 MG cells assessed as late apoptotic cells at 0.075 uM incubated for 72 hrs by Annexin V-FITC/PI staining based flow cytometry method (reference value: 0.42 %); format: functional, U-87MG ATCC
U-251 [3] = assay: Downregulation of CDK4 gene expression in human U-251 cells at 0.075 to 1.2 uM measured after 72 hrs by western blot analysis; format: functional, cell-based; conditions: dose 0.075-1.2 µM
U-251 [4] = assay: Antimigratory activity in human U-251 cells assessed as inhibition of cell migration by measuring wound closure at 0.25 to 1.0 uM and measured after 24 hrs by wound healing assay; format: functional, cell-based; conditions: dose 0.25-1 µM, DDE = dose-dependent effect
U-251 [5] = assay: Downregulation of E2F gene expression in human U-251 cells at 0.075 to 1.2 uM measured after 72 hrs by western blot analysis; format: functional, cell-based; conditions: dose 0.075-1.2 µM
U-251 [6] = assay: Induction of apoptosis in human U-251 cells assessed as necrotic cells at 1.50 uM incubated for 72 hrs by Annexin V-FITC/PI staining based flow cytometry method (Rvb =0.51 %); format: functional; conditions: dose 1.5 µM
U-251 [7] = assay: Downregulation of CDK6 gene expression in human U-251 cells at 0.075 to 1.2 uM measured after 72 hrs by western blot analysis; format: functional, cell-based; conditions: dose 0.075-1.2 µM
U-251 [8] = assay: Downregulation of cyclin D1 gene expression in human U-251 cells at 0.075 to 1.2 uM measured after 72 hrs by western blot analysis; format: functional, cell-based; conditions: dose 0.075-1.2 µM
[9] = Acute toxicity in Kunming mouse assessed as survival at 600 mg/kg, ip measured after 14 days; format: organism-based; conditions: in vivo, 336 h, time 14 day
[10] = AUC (0 to t) in Sprague-Dawley rat plasma at 100 mg/kg, ip and measured upto 240 mins by LC-MS analysis; format: ADME, organism-based; design: dose 100 mg/kg, time < 240 min, route ip
U-87MG ATCC [11] = assay: Downregulation of pRb gene expression in human U-87 MG cells at 0.075 to 1.2 uM measured after 72 hrs by western blot analysis; format: functional, cell-based; conditions: dose 0.075-1.2 µM
U-251 [12] = assay: Induction of apoptosis in human U-251 cells assessed as late apoptotic cells at 6 uM incubated for 72 hrs by Annexin V-FITC/PI staining based flow cytometry method (Rvb =1.31 %); format: functional
U-87MG ATCC [13] = assay: Antitumor activity against human U-87 MG cells xenografted in BALB/c mouse assessed as decrease in tumor weight at 10 mg/kg,ip bid for 1 month; format: functional, organism-based; conditions: time 1.0 months
U-87MG ATCC [14] = assay: Antitumor activity against human U-87 MG cells xenografted in BALB/c mouse assessed as decrease in tumor volume at 10 mg/kg,ip bid for 1 month; format: functional, organism-based; conditions: time 1.0 months
[15] = Acute toxicity in Kunming mouse assessed as pathological changes in liver at 600 mg/kg, ip measured after 24 hrs by H and E staining analysis; format: organism-based; conditions: in vivo
[16] = Induction of apoptosis in human U-87 MG cells assessed as early apoptotic cells at 0.30 uM incubated for 72 hrs by Annexin V-FITC/PI staining based flow cytometry method (reference value: 2.53 %); format: functional, U-87MG ATCC; conditions: dose 0.3 µM
[17] = AUC (0 to infinity) in Sprague-Dawley rat plasma at 100 mg/kg, ip and measured upto 240 mins by LC-MS analysis; format: ADME, organism-based; design: time < 240 min, dose 100 mg/kg, route ip
U-251 [18] = assay: Induction of apoptosis in human U-251 cells assessed as necrotic cells at 0.375 uM incubated for 72 hrs by Annexin V-FITC/PI staining based flow cytometry method (Rvb =0.51 %); format: functional
[19] = Acute toxicity in Kunming mouse assessed as pathological changes in heart at 600 mg/kg, ip measured after 24 hrs by H and E staining analysis; format: organism-based; conditions: in vivo
U-251 [20] = assay: Induction of cell cycle arrest in human U-251 cells assessed as accumulation at G0/G1 phase at 0.75 to 3 uM and measured after 72 hrs by flow cytometry; format: functional, cell-based; conditions: dose 0.75-3 µM, DDE = dose-dependent effect

COCCN1CCN(c2ccc(F)cc2C(=O)Nc2ccc(CNC(=O)OCc3cccnc3)cc2)CC1
viability at 0.075 µM [1]: 96.5% | Activity [2]: 0.41% | Activity (U-251 [3]): Active | Activity (U-251 [4]): Dde | Activity (U-251 [5]): Active | Activity (U-251 [6]): 0.94% | Activity (U-251 [7]): Active | Activity (U-251 [8]): Active | Activity [9]: Non-Toxic | AUC(0-t) at 4 h [10]: 90400 ng·h/mL | Activity (U-87MG ATCC [11]): Active | Activity (U-251 [12]): 5.75% | Activity (U-87MG ATCC [13]): Active | Activity (U-87MG ATCC [14]): Active | Activity [15]: Non-Toxic | Activity [16]: 4.51% | AUC(0-inf) [17]: 95500 ng·h/mL | Activity (U-251 [18]): 0.53% | Activity [19]: Non-Toxic | Activity (U-251 [20]): Dde
